Read-outs that look alike come from different tables or passages of the source.

The test system of this experiment is complex formed by the invertebrate L-quisqualate sub-type L-glutamate receptor and its ion channel. On the set-up: species or system Schistocerca gregaria. The method, then: The compounds were assayed for biological activity on the isolated, retractor unguis nerve-muscle preparation of the locust Schistocerca gregaria (Usherwood, P.N.R and Machili, P. (1968) J. Exp. Biol., 49: 341.). Isolated muscle preparations were bathed continuously in standard locust saline in a bath of volume 250µl. Twitch tension recordings of the muscle were made to electrical stimulation of its motor innervation supramaximal voltage, frequency 0.1Hz).
The locust isolated retractor unguis nerve-muscle is a preparation with well characterised muscle receptors belonging to the quisqualate-sensitive class (Boden, P. et al., (1986) Brain Res., 385: 205.). This preparation has previously been employed to identify antogonists of excitatory amino acid receptors, (e.g. Bateman, A. et al., (1985) Brain Res., 339: 237 and Budd, T. et al., (1988) Brain Res., 448: 30.).
The potency of this monocylated spermine as an antagonist of the complex formed by the invertebrate L-quisqualate sub-type L-glutamate receptor and its ion channel was assayed using the electrically stimulated retractor unguis muscle of the locust (Schistocerca gregaria). Twitch amplitude was reduced (1% inhibition) from control (100%) levels at the following concentrations: […]

On to `NCCCNCCCCNCCCNC(=O)c1ccccc1O` [Example 10], for which, under “1.09 x 10⁻⁵M”, the “Twitch amplitude was reduced from control level” value was “approximately 25%”.
As to `NCCCNCCCNCCCNC(=O)Cc1ccc(O)cc1` [Example 21, N-(4-Hydroxyphenylacetyl)-N′,N˝-bis(3-aminopropyl)-1,3-propanediamine], the “Twitch amplitude was reduced from control (100%) levels” value (10⁻⁴M) is given as “approximately 30%”.
With `NCCCNCCCCNCCCNC(=O)Cc1ccccc1O` [Example 1, N-(2-Hydroxyphenylacetyl)-spermine], the inhibition of twitch is recorded as 85% (1.5 x 10⁻⁴M); 30% (1.5 x 10⁻⁵M); 90% (3 x 10⁻⁴M); 30% (3 x 10⁻⁵M); 20% (3 x 10⁻⁶M); 15% (3 x 10⁻⁷M). Further, for the setting “3 x 10⁻⁸M”, the inhibition of twitch was 10% inhibition of twitch.
Turning to `NCCCNCCCCNCCCNC(=O)c1cccc(O)c1` [Example 11, N-(3-Hydroxybenzoyl)-spermine], where the note is “1.02 x 10⁻⁵M”, the “Twitch amplitude was reduced from control levels” value is “approximately 40%”.
On to `NCCCNCCCCNCCCNC(=O)CCc1ccc(O)cc1` [Example 22, N-(4-Hydroxyphenylpropanoyl)-spermine], for which the “Twitch amplitude was reduced from control levels” value is listed as 38% (1.45x 10^-5M); 30% (1.45x 10^-6M); 81% (2.9 x 10^-5M); 38% (2.9 x 10^-6M); 25% (2.9 x 10^-7M); 10% (2.9 x 10^-8M). Further, the “Twitch amplitude was reduced from control levels” value (7.25x 10^-5M) was 100%. In addition, the IC50 (reduction of twitch amplitude, retractor unguis muscle, read-out: IC₅₀) amounted to 6 µM.
For `NCCCNCCCCNCCCNC(=O)Cc1cc(O)cc(O)c1` [Example 9, N-(3,5-Dihydroxyphenylacetyl)-spermine], the “Twitch amplitude was reduced from control levels” value turned out to be 25% (1 07 x 10⁻⁶M) and 45% (1.07 x 10⁻⁵M).
For `NCCCNCCCCNCCCNC(=O)Cc1ccc(O)cc1` [Example 3, N-(4-Hydroxyphenylacetyl)-spermine], the “Twitch amplitude was reduced from control (100%) levels” value was 74% (2.95x 10⁻⁵M); 91% (4.43x 10⁻⁵M); 96% (5.9 x 10⁻⁵M); 25% (5.9 x 10⁻⁶M); 9% (5.9 x 10⁻⁷M).
In the case of `NCCCNCCCCNCCCNC(=O)CCc1cccc(O)c1` [Example 5, N(3-Hydroxyphenylpropanoyl)-spermine], the inhibition of twitch reads like this: (1.08 x 10⁻⁶M) 15%; (1.08 x 10⁻⁷M) 10%.
For the compound `NCCCNCCCNCCCNC(=O)Cc1cccc(O)c1` [Example 20, N-(3-Hydroxyphenylacetyl)-N′,N˝-bis(3-aminopropyl)-1,3-propanediamine], the “Twitch amplitude was reduced from control (100%) levels” value (1.04 x 10⁻⁴M) is reported as “approximately 60%”.
For `NCCCNCCCCNCCCNC(=O)Cc1cccc(O)c1` [Example 2, N-(3-Hydroxyphenylacetyl)-spermine], the inhibition of twitch reads like this: (3 x 10⁻⁷M) 35%; (3 x 10⁻⁸M) 30%.
Turning to `NCCCNCCCCNCCCNC(=O)C=Cc1cccc(O)c1` [Example 13, N-(3-Hydroxycinnamoyl)-spermine], under “9.2 x 10⁻⁷M”, the “Twitch amplitude was reduced from control levels” value is “approximately 25%”.
Take `NCCCNCCCCNCCCNC(=O)C=Cc1ccc(O)cc1` [Example 6, N-(4-Hydroxycinnamoyl)-spermine]: the “Twitch amplitude was reduced from control (100%) levels” value was determined as 4% (10⁻¹⁰M); 70% (10⁻⁵M); 56% (10⁻⁶M); 33% (10⁻⁷M); 24% (10⁻⁸M); 18% (10⁻⁹M).

(Values after EP0360437A1, “Biocidal polylamine-amides” (priority 1988, dated 1990).)
